Laboratory results from patent publication US20070160491A1, “Method For Determining Lumen Penetration Of A Vapor Phase Sterilant” (priority 2002, published 2007).
“And” between values parts separate entries of the source, which are not always exact repeats. Equal entries are not always repeated. Where two headings read alike, the source gives them in different places.

Experiments:
[1] = cited from earlier work
[2] = 30 °C
Protocol: (§1) Correcting the rate constant from 0.46 sec^−1 at 30° C. to 1.41 sec^−1 at 5° C. is initiated by writing the rate constant as the sum of the decomposition rate constant k^D and the condensation rate constant k^C. […] For a rate constant 0.46 sec^−1 at 30° C., each individual rate constant of decomposition k^D and condensation k^C is approximately 0.46/2=0.23 sec^−1. […] The rate constant of decomposition k^D at 5° C. is calculated from the rate constant of decomposition k^D at 30° C. and the rate factors for decomposition at 30° C. and 5° C.: k^D at 5° C.=0.23 sec^−1×(1 rate factor at 5° C./7 rate factor at 30° C.)=0.03 sec^−1. […] Finally, the rate constant at 5° C. is calculated as the sum of the rate constants of condensation k^C and of decomposition k^D at 5° C.: k at 5° C.=1.38 sec^−1+0.03 sec^−1=1.41 sec^−1.

[3] = cited from earlier work; remark: listed apart in the source
[4] = for rate constant of condensation k^C / rate constant of decomposition k^D: 3 mm stainless steel lumen
From the text: k=rate constant for losses in the lumen, sec^−1
The rate of mass input per volume to the lumen 20 by internal processes is a negative term, whenever mass is lost in the lumen 20 by decomposition, absorption, adsorption and condensation. In that case the rate constant k is a negative number.
The rate constant k cannot be measured experimentally inside the lumen 20 without disturbing the internal environment, so a value is assigned for each lumen material, such as stainless steel and polyethylene. The value is adjusted to provide an area scale, which correlates efficacy results from the sterilization cycles, as discussed below.
(§2) An estimate of the area under the concentration-time curve is obtained by summing the one-second concentration values in the injection and diffusion steps of the cycle, as shown in Table 1 for sterilization cycles in a STERRAD® 200 […] sterilizer available from Advanced Sterilization Products division of Ethicon, Inc., Irvine, Calif., with different lumens in the validation load. The area scale for stainless steel (SS) is established by setting the value of the rate constant k equal to 0.46 sec^−1 to give an area of approximately 100 mg−sec/l for the cycles with 3 mm×500 mm stainless steel lumens at 30° C.
as §1
The adjustment for diameter is made in Table 1 by correcting the rate constant 0.46 sec^−1 for 3 mm stainless steel lumens to 4.14 sec^−1 for 1 mm lumens with factors for the surface to volume ratio and diffusion radius ratio.
Surface to volume ratio correction factor=(surface/volume)1 mm/(surface/volume)3 mm=(2πrL)1 mm/(2πrL/πr^2L)3 mm=(1/r)1 mm/(1/r)3 mm=[…]=1.5 mm/0.5 mm=3
In addition to correction for surface to volume ratio, correction of the rate constant 0.46 sec^−1 for diffusion radius is necessary, because diffusion to the wall of the smaller lumen is greater than for the larger one. Diffusion radius ratio correction factor=(r)3 mm/(r)1 mm=1.5 mm/0.5 mm=3
The area scale for the second lumen material, polyethylene (PE), in Table 1 is established similarly for a limiting case in the STERRAD® 200 Sterilizer. The rate constant is set at 0.33 sec^−1 for 1 mm×500 mm lumens to give an area of approximately 100 mg−sec/l. […] The rate constant 0.33 sec^−1 for lumens with 1 mm diameter is corrected with factors for the surface to volume ratio and diffusion radius ratio to obtain the rate constant 0.037 sec-^−1 for 3 mm lumens.

[5] = system: biological indicators (test microorganisms)
From the text: However, other process variables are also important, such as chamber and load temperature, size and composition of the load and exposure time. For a fixed load configuration in a particular sterilizer with a qualified sterilization cycle, temperature remains relatively constant during injection, so concentration and exposure time become the most important control variables. Area under a concentration-time curve is a useful index for quantifying cycle performance to compare with efficacy as measured via biological indicators.
as §2

[6] = lumen 0.8 × 100 mm SS, 30 °C, injection time 6.5 min
[7] = lumen 0.8 × 150 mm SS, 30 °C, injection time 6.5 min
[8] = lumen 1 × 125 mm SS, 30 °C, injection time 6.5 min
[9] = lumen 1 × 500 mm PE, 30 °C, injection time 6.5 min
[10] = lumen 1 × 700 mm PE, 30 °C, injection time 6.5 min
[11] = lumen 3 × 400 mm SS, 5 °C, injection time 6.5 min
[12] = lumen 3 × 400 mm SS, 30 °C, injection time 1 min
[13] = lumen 3 × 400 mm SS, 30 °C, injection time 2 min
[14] = lumen 3 × 400 mm SS, 30 °C, injection time 6.5 min
[15] = lumen 3 × 500 mm SS, 30 °C, injection time 6.5 min
[16] = lumen 3 × 1000 mm PE, 30 °C, injection time 6.5 min
[17] = lumen 3 × 1500 mm PE, 30 °C, injection time 6.5 min

## OO [hydrogen peroxide]
[1]; 5 °C (base case)
  Rate Factor for Decomposition: 1
[1]; 5 °C (base case), listed as Hydrogen Peroxide
  Rate Factor for Decomposition: 1 Base Case
[1]; 15 °C
  Rate Factor for Decomposition: 2.2
[1]; 25 °C
  Rate Factor for Decomposition: 4.84
[1]; 35 °C
  Rate Factor for Decomposition: 10.65
[1]; 45 °C
  Rate Factor for Decomposition: 23.4
[1]; per each 10 °C rise in temperature
  factor by which the decomposition rate increases: 2.2
[2]
  Rate Factor for Decomposition: 7
[3]; at 5 °C
  vapor pressure of hydrogen peroxide: 0.46 mm Hg
[3]; at 30 °C
  vapor pressure of hydrogen peroxide: 2.77 mm Hg
[4]; 0.8 mm stainless steel lumens, 30 °C, k3 mm × 3.75 × 3.75
  −k, rate constant for losses in the lumen: 6.47 s⁻¹
[4]; 0.8 mm stainless steel lumens, 30 °C, k3 mm × 3.75 × 3.75, listed as H2O2
  −k, rate constant for losses in the lumen: 6.47 s⁻¹
[4]; 1 mm polyethylene lumens, 30 °C, k chosen to give 100 mg-sec/l area threshold
  −k, rate constant for losses in the lumen: 0.33 s⁻¹
[4]; 1 mm polyethylene lumens, 30 °C, k chosen to give 100 mg-sec/l area threshold, listed as H2O2
  −k, rate constant for losses in the lumen: 0.33 s⁻¹
[4]; 1 mm stainless steel lumens, 30 °C, k3 mm × 3 × 3
  −k, rate constant for losses in the lumen: 4.14 s⁻¹
[4]; 1 mm stainless steel lumens, 30 °C, k3 mm × 3 × 3, listed as H2O2
  −k, rate constant for losses in the lumen: 4.14 s⁻¹
[4]; 1 mm stainless steel lumens, 30 °C, k3 mm × 3 × 3, listed as Hydrogen Peroxide
  −k, rate constant for losses in the lumen: 4.14 ^d sec^−1
[4]; 3 mm polyethylene lumens, 30 °C, k1 mm/(3 × 3)
  −k, rate constant for losses in the lumen: 0.037 s⁻¹
[4]; 3 mm polyethylene lumens, 30 °C, k1 mm/(3 × 3), listed as H2O2
  −k, rate constant for losses in the lumen: 0.037 s⁻¹
[4]; 3 mm polyethylene lumens, 30 °C, k1 mm/(3 × 3), listed as Hydrogen Peroxide
  −k, rate constant for losses in the lumen: 0.037 ^f sec^−1 and 0.037 sec^−1
[4]; 5 °C
  rate constant of condensation k^C: 1.38 s⁻¹
  rate constant of decomposition k^D: 0.03 s⁻¹
[4]; 30 °C
  rate constant of condensation k^C: ~0.23 s⁻¹
  rate constant of decomposition k^D: ~0.23 s⁻¹
[4]; 3 mm stainless steel lumens, 5 °C, calculated from k at 30 °C, vapor pressure data and decomposition rate factor
  −k, rate constant for losses in the lumen: 1.41 s⁻¹
[4]; 3 mm stainless steel lumens, 5 °C, calculated from k at 30 °C, vapor pressure data and decomposition rate factor, listed as H2O2
  −k, rate constant for losses in the lumen: 1.41 s⁻¹
[4]; 3 mm stainless steel lumens, 5 °C, calculated from k at 30 °C, vapor pressure data and decomposition rate factor, listed as Hydrogen Peroxide
  −k, rate constant for losses in the lumen: 1.41 ^c sec^−1
[4]; 3 mm stainless steel lumens, 30 °C, k chosen to give 100 mg-sec/l area threshold
  −k, rate constant for losses in the lumen: 0.46 s⁻¹
[4]; 3 mm stainless steel lumens, 30 °C, k chosen to give 100 mg-sec/l area threshold, listed as H2O2
  −k, rate constant for losses in the lumen: 0.46 s⁻¹
[5]; [6]
  Fraction Positive Biological Indicators: 0/48
  Indicator Results Zone: Negative
[5]; [7]
  Fraction Positive Biological Indicators: 2/24
  Indicator Results Zone: Positive
[5]; [8]
  Fraction Positive Biological Indicators: 0/36
  Indicator Results Zone: Negative
[5]; [9]
  Fraction Positive Biological Indicators: 0/36
  Indicator Results Zone: Mixed
[5]; [10]
  Fraction Positive Biological Indicators: 1/12
  Indicator Results Zone: Positive
[5]; [11]
  Fraction Positive Biological Indicators: 1/72
  Indicator Results Zone: Positive
[5]; [12]
  Fraction Positive Biological Indicators: 4/72
  Indicator Results Zone: Mixed
[5]; [13]
  Fraction Positive Biological Indicators: 0/72
  Indicator Results Zone: Mixed
[5]; [14]
  Fraction Positive Biological Indicators: 0/72
  Indicator Results Zone: Negative
[5]; [15]
  Fraction Positive Biological Indicators: 0/96
  Indicator Results Zone: Mixed
[5]; [16]
  Fraction Positive Biological Indicators: 0/36
  Indicator Results Zone: Negative
[5]; lumen 3 × 1500 mm PE, 30 °C, injection time 20, 25, 30 min
  Indicator Results Zone: Negative
[5]; [17]
  Fraction Positive Biological Indicators: 1/36
  Indicator Results Zone: Mixed
[5]; lumen 3 × 1500 mm PE, 30 °C, injection time 20 min
  Fraction Positive Biological Indicators: 0/12
[5]; lumen 3 × 1500 mm PE, 30 °C, injection time 25 min
  Fraction Positive Biological Indicators: 0/12
[5]; lumen 3 × 1500 mm PE, 30 °C, injection time 30 min
  Fraction Positive Biological Indicators: 0/12
[5]; lumen 3 × 1500 mm PE, 30 °C, injection times 20, 25, 30 min pooled
  Fraction Positive BIs: 0/36
